Data: patent publication US12102705B2, “Peptides having inhibitory activity on muscarinic receptor M3” (AZIENDE CHIMICHE RIUNITE ANGELINI FRANCESCO—A.C.R.A.F. …, priority 2018, dated 2024)
Peptide text beside a SMILES is read from it. * marks the point of attachment. Palmitoyl = CCCCCCCCCCCCCCCC(=O)*

Assays:
[1] = target: T1, human muscarinic receptor M3 (Homo sapiens, UniProt P20309); test: Inhibition of M3-acetylcholine activation, Fluo-4 NW calcium fluorescence; format: cell-based; settings: 50 min, 50 min incubation, 10 nM acetylcholine
T1 construct: expressed in transfected cells; cultured in Ham's F-12 medium
T1 sequence (P20309 whole entry): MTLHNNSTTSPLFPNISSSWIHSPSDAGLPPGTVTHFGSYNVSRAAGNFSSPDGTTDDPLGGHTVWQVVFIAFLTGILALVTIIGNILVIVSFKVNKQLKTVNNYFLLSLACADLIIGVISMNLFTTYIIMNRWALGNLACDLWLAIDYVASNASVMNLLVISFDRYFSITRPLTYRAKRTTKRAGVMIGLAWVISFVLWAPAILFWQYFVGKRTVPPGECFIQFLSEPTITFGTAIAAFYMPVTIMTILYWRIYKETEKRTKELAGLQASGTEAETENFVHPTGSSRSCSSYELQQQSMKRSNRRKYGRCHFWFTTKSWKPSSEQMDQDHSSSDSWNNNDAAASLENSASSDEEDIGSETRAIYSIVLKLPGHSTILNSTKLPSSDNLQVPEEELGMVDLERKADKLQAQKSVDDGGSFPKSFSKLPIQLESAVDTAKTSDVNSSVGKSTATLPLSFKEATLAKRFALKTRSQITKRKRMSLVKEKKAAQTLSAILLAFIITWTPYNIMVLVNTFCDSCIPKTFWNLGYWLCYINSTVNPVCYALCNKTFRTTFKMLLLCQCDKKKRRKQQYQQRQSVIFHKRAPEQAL
Method: (§1) Epithelial stable cell line constitutively expressing human muscarinic receptor M3 was used to assess peptides activity. Cells were seeded in 96-well plates at 50% cell confluence in 100 μL of complete Ham's F-12 medium. After 24 hours, medium was removed and cells were incubated with 90 μL/well of a solution of the peptides of the invention at 100, 50 or 10 μM or DMSO as vehicle. Peptides were dissolved in Fluo-4 NW (Invitrogen) fluorescent calcium probe assay buffer containing Probenecid, following manufacturer's instructions for 50 min at 37° C. in a CO2 incubator. Afterwards, M3 activity was determined by reading the fluorescence in a FLUOstar Galaxy reader (BMG LabTechnologies) using 485 nm filter for excitation and 520 nm for emission, recording signal before and after M3 activation with 10 nM acetylcholine. Fluorescence measurements were normalized to acetylcholine maximum fluorescence signal in vehicle treated cells. Atropine (100 nM) was used as positive control for inhibition. Inhibition values of M3 activity were calculated as percentages by considering maximum fluorescence corresponding to acetylcholine-M3 activation and minimum as non-stimulated cells. Table D details inhibition values of M3 activity inhibition obtained for the peptides of invention.

[2] = target: T1, human muscarinic receptor M3; test: Time-dependent inhibition of M3 activity, Fluo-4 NW calcium fluorescence; format: cell-based; settings: peptide 50 μM, read-out: % Inhibition hM3 receptor activity
Method: Peptides of invention were designed to target the intracellular region of M3. Therefore, minimum time required to detect inhibitory effect on M3 activity was evaluated. For this purpose, inhibitory effect of peptides Seq. […] Epithelial stable cell line constitutively expressing human muscarinic receptor M3 was used to assess peptides activity. Cells were seeded in 96-well plates at 50% cell confluence in 100 μL of complete Ham's F-12 medium. After 24 hours, medium was removed and cells were incubated with 90 μL/well of Fluo-4 NW (Invitrogen) fluorescent calcium probe assay buffer containing probenecid, following manufacturer's instructions at 37° C. in a CO2 incubator. Peptides (50 μM), vehicle and atropine were incubated either with the probe (1 hour pre-incubation) or during fluorescence reading (direct effect). Afterwards, M3 activity was recorded for 20 cycles and direct effect peptides were added on cycle 3 after baseline assessment. Acetylcholine was added on cycle 13. Therefore, direct effect of peptides was monitored for 25 minutes. Inhibition values of M3 activity were calculated as percentages by considering maximum fluorescence corresponding to vehicle or non-treated cells acetylcholine-M3 activation and minimum as non-stimulated cells. Table E details inhibition values of M3 activity inhibition obtained for the peptides of invention.

[3] = target: T1, human muscarinic receptor M3; test: Dose-response inhibitory effect on M3 activity (IC50); format: cell-based
Method: as §1
Characterization of Seq. ID No. 1, 3-8 peptides efficiency was obtained by calculating half maximal inhibitory concentration (IC50). For this purpose, experimental procedure regarding cell culture and fluorescent calcium probe assay was followed as described on Example 2. Peptides were assessed at concentrations between 0.1 and 100 μM and incubated for 1 hour together with Fluo-4 NW probe. Afterwards, M3 activity was determined by reading the fluorescence in a FLUOstar Galaxy reader (BMG LabTechnologies) using 485 nm filter for excitation and 520 nm for emission, recording signal before and after M3 activation with acetylcholine. Fluorescence measurements were standardized with regard to the maximum fluorescence signal detected with acetylcholine stimulation in vehicle treated cells. Inhibition values of M3 activity were calculated as percentages by considering maximum fluorescence corresponding to acetylcholine-M3 activation and minimum as non-stimulated cells. Percentage inhibition data was fitted to a sigmoidal curve to obtain IC50. Table F details inhibition values for IC50

[4] = tested on: sweating induced by pilocarpine; test: Antiperspirant effect on acute administration, pilocarpine-induced mouse model of sweat secretion; format: in vivo, C57BL6/Rcc male mice; settings: at 10, 30 and 100 μg
Method: This example evaluated acute effects of the peptide of invention Seq. ID No 2, pamitoylated form, in an in vivo sweating model induced by pilocarpine. This model was established using pilocarpine, a non-selective agonist of muscarinic receptors, in 11-weeks old C57BL6/Rcc male mice.
Test compound is the peptide of the invention having the following sequence (Sequence ID No. 2): • Palm-WMMRLK-NH2
Test compound was injected i.pl. on the right hind paw (10, 30 and 100 μg) 30 min before sweating stimulation. Vehicle was saline solution.
(§2) Sweating was monitored through amylase activity detection on skin surface using iodine/starch reaction. Dark sweating drops were quantified after 5 minutes induction counting number of drops per paw in each condition. Data are expressed as mean±standard error of the mean (SEM). Raw data was normalized as percentage respect to non-injected stimulated individuals (Control, 100%) and saline-injected non-stimulated individuals (Vehicle, 0%). Statistical analysis was one-way ANOVA followed by Dunnett's post-hoc multiple comparison test comparing each condition with the corresponding control group, ****p<0.0001 ***p<0.001 **p<0.01, *p<0.05

[5] = tested on: sweating induced by pilocarpine; test: Antiperspirant effect on chronic administration, pilocarpine-induced mouse model of sweat secretion; format: in vivo, C57BL6/Rcc male mice; settings: during 4 weeks treatment, 10 and 100 μg/paw
Method: This example evaluated chronic effects of peptide of invention Seq. ID No. 2, palmitoylated form, in an in vivo sweating model. This model was established using pilocarpine, a non-selective agonist of muscarinic receptors, in 11-weeks old C57BL6/Rcc male mice. Test compound was locally administered three times per week for 4 weeks (Treatment). Sweat was induced by intraplantar (i.pl) injection of pilocarpine (3 μg/paw) in the right hind paw (Sweating) on weeks 1, 2 and 4 according to the table H.
Test compound is the peptide of the invention having the following sequence (Sequence ID No. 2): • Palm-WMRLK-NH2
Test compound was injected i.pl. on the right hind paw (1, 10 and 100 μg in). Vehicle injected was saline solution.
as §2, with “condition. Sample n=5-6 individuals per group.” for “condition.”, “100%).” for “100%) and saline-injected non-stimulated individuals (Vehicle, 0%).”

Compound: CCCCCCCCCCCCCCCC(=O)N[C@@H](Cc1c[nH]c2ccccc12)C(=O)N[C@@H](CCSC)C(=O)N[C@@H](CCCNC(=N)N)C(=O)N[C@@H](CC(C)C)C(=O)N[C@@H](CCCCN)C(N)=O [Seq. ID No. 2 Palmitoyl, Palm-WMRLK-NH2] (Palmitoyl-WMRLK-NH2)
- inhibition at 10 µM ([1]; peptide 10 μM): 62.5%
- inhibition at 50 µM ([1]; peptide 50 μM): 85.4%
- inhibition at 100 µM ([1]; peptide 100 μM): 88.6%
- inhibition at 50 µM ([2]; 25 min, 25 minutes (direct effect)): 25.5%
- inhibition at 50 µM ([2]; 60 minutes (1 hour pre-incubation)): 81%
- IC50 [3]: 7.2 µM
- reduction of sweating [4]: significantly reduced sweating
- sweating inhibition [5]: significant sweating inhibition
